The values below come from publication PMC8380238, “Structure-based virtual screening of CYP1A1 inhibitors: towards rapid tier-one assessment of potential developmental toxicants” (Archives of Toxicology, 2021).

Molecules are shown by their SMILES. Like-named read-outs stand apart in the source and are kept apart here. A value given as a limit tells only on which side of the number the result lay.

Data set [1] deals with T1, human recombinant CYP1A1 (rCYP1A1) (Homo sapiens, UniProt P04798).
T1 sequence (P04798 1-512): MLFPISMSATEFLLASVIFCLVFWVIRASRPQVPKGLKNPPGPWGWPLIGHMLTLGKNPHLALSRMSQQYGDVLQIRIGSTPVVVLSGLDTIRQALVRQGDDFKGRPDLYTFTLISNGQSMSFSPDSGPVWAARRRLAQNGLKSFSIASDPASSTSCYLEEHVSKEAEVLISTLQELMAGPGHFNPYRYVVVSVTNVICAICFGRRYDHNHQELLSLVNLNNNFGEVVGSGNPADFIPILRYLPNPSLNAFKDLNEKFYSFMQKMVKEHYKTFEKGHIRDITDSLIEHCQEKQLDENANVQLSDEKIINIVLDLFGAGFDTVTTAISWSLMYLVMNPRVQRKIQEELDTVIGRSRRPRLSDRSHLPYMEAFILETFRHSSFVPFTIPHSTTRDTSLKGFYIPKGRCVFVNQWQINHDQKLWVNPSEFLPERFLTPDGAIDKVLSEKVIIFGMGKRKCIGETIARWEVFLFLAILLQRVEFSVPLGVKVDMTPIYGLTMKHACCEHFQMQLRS

Data set [2] relates to CYP1A1. The conditions noted are these: cited from earlier work.
Data set [3] deals with T1, human recombinant CYP1A1 (rCYP1A1). Kind of data set: CYP1A1 activity assay: inhibition of CEC metabolism (IC50).
Data set [4] shares this target. Kind of data set: CYP1A1 activity assay repeated at six CEC concentrations (Ki, α, mode of inhibition).
Data set [5] shares this target. The note with it: recombinant enzyme.
The subject of data set [6] is human CYP1A1. The conditions noted are these: cited from earlier work.
Data set [7] concerns CYP1A1. The conditions noted are these: cited from earlier work. This is another data set of the same source.
The mark [8] stands for this setting: CYP1A1 IC50 (range of colour key, Fig. 5a).
Setting [9] is: CYP1A1 Ki (range of colour key, Fig. 5b).

Take `CC(=O)[C@H]1CC[C@H]2[C@@H]3CCC4=CC(=O)CC[C@]4(C)[C@H]3CC[C@]12C` [Progesterone, reference compound]: in data set [1], the “MOI (mode of inhibition)” value was “Competitive”. Further, the CYP1A1 substrate category entry in data set [2] is “weak”. Also, the IC50 is 10 to 100 µM in data set [3] (setting [8]) and 41 µM in data set [3] (IC50). Besides, in data set [4], the “α (degree to which the binding of inhibitor changes the affinity of the enzyme for substrate)” value worked out at 4.3. The Ki was 15 to 20 µM in data set [4] (setting [9]) and 20 µM in data set [4] (Ki).
Regarding `CC(O)(CS(=O)(=O)c1ccc(F)cc1)C(=O)Nc1ccc(C#N)c(C(F)(F)F)c1` (centres unmarked) [Bicalutamide, reference compound], the “MOI (mode of inhibition)” value in data set [1] is on record as “Mixed”. Also, the IC50 in data set [3] (setting [8]) was 10 to 100 µM; in data set [3] (IC50) it was 14 µM. The results for the Ki in data set [4] (setting [9]) and in data set [4] (Ki) were 1 to 10 µM and 6.6 µM, respectively.
For `CCCOC(=O)c1ccc(O)cc1` [Propyl paraben], in data set [1], the “MOI (mode of inhibition)” value is “Competitive”. The IC50 in data set [3] (setting [8]) is 10 to 100 µM; in data set [3] (IC50), 39 µM. Moreover, in data set [4], the “α (degree to which the binding of inhibitor changes the affinity of the enzyme for substrate)” value was 6.2. For the same compound, the results for the Ki in data set [4] (setting [9]) and in data set [4] (Ki) were 15 to 20 µM and 17 µM, respectively.
For `CCOC(=O)c1ccccc1C(=O)OCC` [Diethyl phthalate], the “MOI (mode of inhibition)” value in data set [1] is on record as “Competitive”. The half-maximal inhibitory concentration (IC50) was 10 to 100 µM in data set [3] (setting [8]) and 38 µM in data set [3] (IC50). Further, the Ki was 10 to 15 µM in data set [4] (setting [9]) and 10 µM in data set [4] (Ki).
As to `C=CC(=C)CCC=C(C)C` [β-Myrcene], in data set [1], the “MOI (mode of inhibition)” value is reported as “Mixed”. Further, the IC50 is 10 to 100 µM in data set [3] (setting [8]) and 52 µM in data set [3] (IC50). Further, in data set [4], the “α (degree to which the binding of inhibitor changes the affinity of the enzyme for substrate)” value came to 3.5. Moreover, the Ki in data set [4] (setting [9]) was 10 to 15 µM; in data set [4] (Ki), 11 µM.
In the case of `O=P1(N(CCCl)CCCl)NCCCO1` (centres unmarked) [Cyclophosphamide, reference compound], the results for the IC50 entry in data set [5] and in data set [3] (setting [8]) were “∞” and at least 1000 µM, respectively.
In the case of `CC(C)(c1ccc(O)cc1)c1ccc(O)cc1` [Bisphenol A], in data set [1], the “MOI (mode of inhibition)” value is given as “Competitive”. In addition, the figures for the IC50 in data set [3] (setting [8]) and in data set [3] (IC50) were 1 to 10 µM and 2.4 µM, respectively. Moreover, in data set [4], the “α (degree to which the binding of inhibitor changes the affinity of the enzyme for substrate)” value amounted to 9.1. Also, in data set [4] (Ki), the Ki was found to be 0.53 µM.
On to `CCOc1ccc2cc(C#N)c(=O)oc2c1` [CEC, 3-cyano-7-ethoxycoumarin], for which the “activity of human CYP1A1 on the fluorometric substrate” value in data set [6] is given as 40.2 pmol/min/pmol CYP1A1.
As for `C[C@]12CC[C@@H]3c4ccc(O)cc4CC[C@H]3[C@@H]1CC[C@@H]2O` [Estradiol, reference compound], the “MOI (mode of inhibition)” value in data set [1] was “Competitive”. The CYP1A1 substrate category result in data set [2] is given as “strong”. The IC50 in data set [3] (setting [8]) was 10 to 100 µM; in data set [3] (IC50) it was 43 µM. Moreover, in data set [4], the “α (degree to which the binding of inhibitor changes the affinity of the enzyme for substrate)” value is given as 4.3. In addition, the Ki was 10 to 15 µM in data set [4] (setting [9]) and 13 µM in data set [4] (Ki).
Consider `CCCCc1oc2ccccc2c1C(=O)c1cc(I)c(OCCNCC)c(I)c1` [DEA, desethylamiodarone], for which, in data set [7], the inhibition constant Ki is 1.5 µM and the α is reported as 5.7.
As for `CC(=O)N1CCN(c2ccc(OCC3COC(Cn4ccnc4)(c4ccc(Cl)cc4Cl)O3)cc2)CC1` (centres unmarked) [Ketoconazole, reference compound], the “MOI (mode of inhibition)” value in data set [1] is given as “Noncompetitive”. In addition, the IC50 in data set [3] (IC50) is 0.099 µM. Besides, the “α (degree to which the binding of inhibitor changes the affinity of the enzyme for substrate)” value in data set [4] was found to be 0.68. The Ki in data set [4] (Ki) was determined as 0.11 µM.
As to `CCCCOC(=O)c1ccccc1C(=O)OCCCC` [Dibutyl phthalate], the “MOI (mode of inhibition)” value in data set [1] is recorded as “Competitive”. Moreover, the figures for the IC50 in data set [3] (setting [8]) and in data set [3] (IC50) were 10 to 100 µM and 10 µM, respectively. The “α (degree to which the binding of inhibitor changes the affinity of the enzyme for substrate)” value in data set [4] is given as 13. Also, the Ki in data set [4] (setting [9]) is 1 to 10 µM; in data set [4] (Ki), 1.6 µM.
Take `C[C@]12CC[C@@H]3c4ccc(O)cc4CC[C@H]3[C@@H]1C[C@@H](O)[C@@H]2O` [Estriol]: the IC50 entry in data set [5] was “∞”; in data set [3] (setting [8]), at least 1000 µM.
Regarding `C[C@]12CC[C@H]3[C@@H](CCC4=CC(=O)CC[C@@]43C)[C@@H]1CC[C@@H]2O` [Testosterone], the CYP1A1 substrate category entry in data set [2] is recorded as “weak”.
`C[C@H]1CCCC(=O)CCC/C=C/c2cc(O)cc(O)c2C(=O)O1` [Zearalenone]: the “MOI (mode of inhibition)” value in data set [1] is recorded as “Mixed”. In addition, in data set [3] (IC50), the IC50 was 0.7 µM. Moreover, the “α (degree to which the binding of inhibitor changes the affinity of the enzyme for substrate)” value in data set [4] turned out to be 3.5. Also, the Ki in data set [4] (Ki) worked out at 0.66 µM.
As to `O=c1ccc2nc3ccc(OCc4ccccc4)cc3oc-2c1` [BzRes, resorufin benzyl ether], the “activity of human CYP1A1 on the fluorometric substrate” value in data set [6] (ref Stresser et al. [2002]) was 0.457 pmol/min/pmol CYP1A1.
`CC(=O)O[C@]1(C(C)=O)CC[C@H]2[C@@H]3C=C(Cl)C4=CC(=O)[C@@H]5C[C@@H]5[C@]4(C)[C@H]3CC[C@@]21C` [Cyproterone acetate, reference compound]: in data set [1], the “MOI (mode of inhibition)” value is “Competitive”. Further, the half-inhibitory concentration (IC50) in data set [3] (setting [8]) is 1 to 10 µM; in data set [3] (IC50), 9.9 µM. Moreover, the “α (degree to which the binding of inhibitor changes the affinity of the enzyme for substrate)” value in data set [4] was found to be 7. Moreover, the Ki in data set [4] (CYP1A1 Ki (range of colour key, Fig. 5b), range assigned by colour of the point) is 1 to 10 µM; in data set [4] (Ki, CEC 1.56-50.0 µM) it was 8.8 µM.
Take `COc1ccc2[nH]cc(CCNC(C)=O)c2c1` [Melatonin]: the CYP1A1 substrate category entry in data set [2] is on record as “strong”.

By IC50 is commonly meant the concentration that gives 50% inhibition. One may read the Ki as a dissociation constant, usually derived from enzyme kinetics or from competition with a known ligand.
